Tests used:
[1] = cited from earlier work; for pKas: Table 1, acidic herbicide; for pKa: imidazolinone acids
sunflower = assay: greenhouse visual injury rating, Examples 9-10, sunflower; type: in vivo; conditions: Two Week
Text: (§1) Each treatment in the experiment was replicated three times. An untreated control was also included in the experiment.
(§2) These treatments were compared to PCC-1190 and PCC-1189 without the addition of an acidifying agent, a standard imidazolinone acid formulation (PURSUIT and SCEPTER), and an untreated control.
(§3) For the experiments, greenhouse flats 26 cm by 6 cm deep were filled with Metro Mix 350 potting soil. The soil was pre-wetted before filling the flats. Six furrows were pressed into the soil in each flat using a custom designed form. Corn, tame oats, velvet leaf (not used in Example 10), wheat, pinto beans, and sunflower were planted in each tray. One species was planted in each of the six rows in each flat. Five seeds were planted in each row of corn, pinto bean, and sunflower. Six seeds were planted in each row of tame oat and wheat. Because velvet leaf seeds were so small, the seeds were sprinkled in each row and the number of such seeds were not counted. Each flat was covered with 2 cm of Metro Mix 350 potting soil and placed in the greenhouse. Greenhouse conditions were 28/20 C day/night temperatures and 16/8 h day/night periods. Light was supplemented with 400 W sodium halide lights. The plants were allowed to germinate and grow in the greenhouse for 2 weeks and then treated. Treatments were mixed using serial dilutions. Each dilution reduced the herbicide rate by one half. All acidifying agents (e.g., PCC-I174, LI-136, sulfuric acid, and phosphoric acid) were calculated and mixed to provide acid concentrations of 0.9%.
(§4) At the time of treatment, crops were at the following stages: corn—2 to 3 lf, tame oat—2 to 3 lf, velvet leaf 2 if (not used in Example 10), pinto bean—2-3 lf, wheat—4 to 5 lf, and sunflower-2 lf. Plants were treated using a greenhouse track sprayer equipped with an 8001E nozzle and calibrated to deliver 140 L ha-1 at the height of the crop canopy. Each treatment was simultaneously applied to three trays of plants, one for each replicate. After treatment, the plants were left in the head house to dry and then transferred to the greenhouse. Plants in each treatment were evaluated visually for injury 1 week and 2 weeks after treatment.
(§5) The injury caused by the herbicide treatment was rated visually. […] All the plants of each species in each replication were given a single rating. A rating of 0=no injury—the plants look the same as the untreated. A rating of 100=dead—usually highly necrotic, brown and no chance of producing seed.
(§6) The ingredients of the herbicide compositions as applied are listed in the following tables, and were diluted with water and used at the rates indicated for herbicide ingredients and acidifying agents.

pinto bean = assay: greenhouse visual injury rating, Examples 9-10, pinto bean; type: in vivo; conditions: Two Week
Text: as §1, §2, §3, §4, §5, §6

corn = assay: greenhouse visual injury rating, Examples 9-10, corn; type: in vivo; conditions: Two Week
Text: as §1, §2, §3, §4, §5, §6

wheat = assay: greenhouse visual injury rating, Examples 9-10, wheat; type: in vivo; conditions: Two Week
Text: as §1, §2, §3, §4, §5, §6

tame oat = assay: greenhouse visual injury rating, Examples 9-10, tame oat; type: in vivo; conditions: Two Week
Text: as §1, §2, §3, §4, §5, §6

[2] = PCC-1189 0.031 LB AE/A + PHOSPHORIC ACID 2 % V/V
[3] = PCC-1189 0.245 3 AE/A + PHOSPHORIC ACID 2 V/V
[4] = PCC-1189 0.49 3 AE/A + PHOSPHORIC ACID 2 V/V
[5] = PCC-1189 .0155 LB AE/A + PHOSPHORIC ACID 2 % V/V
[6] = PCC-1189 .0613 LB AE/A + PHOSPHORIC ACID 2 % V/V
[7] = PCC-1189 .1225 LB AE/A + PHOSPHORIC ACID 2 % V/V
[8] = PCC-1189 0.031 LB AE/A + SULFURIC ACID 2 % V/V
[9] = PCC-1189 0.245 LB AE/A + SULFURIC ACID 2 % V/V
[10] = PCC-1189 0.49 LB AE/A + SULFURIC ACID 2 % V/V
[11] = PCC-1189 .0155 LB AE/A + SULFURIC ACID 2 % V/V
[12] = PCC-1189 .0613 LB AE/A + SULFURIC ACID 2 % V/V
[13] = PCC-1189 .1225 LB AE/A + SULFURIC ACID 2 % V/V

O=C(O)CCCOc1ccc(Cl)cc1Cl [2,4-DB]
pKas [1]: 4.8

CC(C)C1(C)N=C(c2nc3ccccc3cc2C(=O)O)NC1=O (centres unmarked) [Imazaquin]
pKas [1]: 3.8 | pKa [1]: approximately 3.8

CCc1cnc(C2=NC(C)(C(C)C)C(=O)N2)c(C(=O)O)c1 (centres unmarked) [Imazethapyr]
pKas [1]: 3.9 | pKa [1]: approximately 3.9

O=P(O)(O)O [PHOSPHORIC ACID]
injury rated visually (0=no injury, 100=dead), Sunflower (sunflower; [2]): 50.0 | injury rated visually (0=no injury, 100=dead), Sunflower (sunflower; [3]): 60.0 | injury rated visually (0=no injury, 100=dead), Sunflower (sunflower; [4]): 50.0 | injury rated visually (0=no injury, 100=dead), Sunflower (sunflower; [5]): 50.0 | injury rated visually (0=no injury, 100=dead), Sunflower (sunflower; [6]): 40.0 | injury rated visually (0=no injury, 100=dead), Sunflower (sunflower; [7]): 50.0 | injury rated visually (0=no injury, 100=dead), Pinto Bean (pinto bean; [2]): 20.0 | injury rated visually (0=no injury, 100=dead), Pinto Bean (pinto bean; [3]): 30.0 | injury rated visually (0=no injury, 100=dead), Pinto Bean (pinto bean; [4]): 30.0 | injury rated visually (0=no injury, 100=dead), Pinto Bean (pinto bean; [5]): 10.0 | injury rated visually (0=no injury, 100=dead), Pinto Bean (pinto bean; [6]): 30.0 | injury rated visually (0=no injury, 100=dead), Pinto Bean (pinto bean; [7]): 25.0 | injury rated visually (0=no injury, 100=dead), Corn (corn; [2]): 10.0 | injury rated visually (0=no injury, 100=dead), Corn (corn; [3]): 10.0 | injury rated visually (0=no injury, 100=dead), Corn (corn; [4]): 20.0 | injury rated visually (0=no injury, 100=dead), Corn (corn; [5]): 10.0 | injury rated visually (0=no injury, 100=dead), Corn (corn; [6]): 15.0 | injury rated visually (0=no injury, 100=dead), Corn (corn; [7]): 10.0 | injury rated visually (0=no injury, 100=dead), Wheat (wheat; [2]): 0.0 | injury rated visually (0=no injury, 100=dead), Wheat (wheat; [3]): 0.0 | injury rated visually (0=no injury, 100=dead), Wheat (wheat; [4]): 0.0 | injury rated visually (0=no injury, 100=dead), Wheat (wheat; [5]): 0.0 | injury rated visually (0=no injury, 100=dead), Wheat (wheat; [6]): 0.0 | injury rated visually (0=no injury, 100=dead), Wheat (wheat; [7]): 0.0 | injury rated visually (0=no injury, 100=dead), Tame Oat (tame oat; [2]): 0.0 | injury rated visually (0=no injury, 100=dead), Tame Oat (tame oat; [3]): 0.0 | injury rated visually (0=no injury, 100=dead), Tame Oat (tame oat; [4]): 0.0 | injury rated visually (0=no injury, 100=dead), Tame Oat (tame oat; [5]): 0.0 | injury rated visually (0=no injury, 100=dead), Tame Oat (tame oat; [6]): 0.0 | injury rated visually (0=no injury, 100=dead), Tame Oat (tame oat; [7]): 0.0

Nc1c(Cl)c(Cl)nc(C(=O)O)c1Cl [Picloram]
pKas [1]: 2.3

O=S(=O)(O)O [SULFURIC ACID]
injury rated visually (0=no injury, 100=dead), Sunflower (sunflower; [8]): 30.0 | injury rated visually (0=no injury, 100=dead), Sunflower (sunflower; [9]): 60.0 | injury rated visually (0=no injury, 100=dead), Sunflower (sunflower; [10]): 80.0 | injury rated visually (0=no injury, 100=dead), Sunflower (sunflower; [11]): 30.0 | injury rated visually (0=no injury, 100=dead), Sunflower (sunflower; [12]): 40.0 | injury rated visually (0=no injury, 100=dead), Sunflower (sunflower; [13]): 40.0 | injury rated visually (0=no injury, 100=dead), Pinto Bean (pinto bean; [8]): 10.0 | injury rated visually (0=no injury, 100=dead), Pinto Bean (pinto bean; [9]): 20.0 | injury rated visually (0=no injury, 100=dead), Pinto Bean (pinto bean; [10]): 30.0 | injury rated visually (0=no injury, 100=dead), Pinto Bean (pinto bean; [11]): 10.0 | injury rated visually (0=no injury, 100=dead), Pinto Bean (pinto bean; [12]): 0.0 | injury rated visually (0=no injury, 100=dead), Pinto Bean (pinto bean; [13]): 10.0 | injury rated visually (0=no injury, 100=dead), Corn (corn; [8]): 20.0 | injury rated visually (0=no injury, 100=dead), Corn (corn; [9]): 20.0 | injury rated visually (0=no injury, 100=dead), Corn (corn; [10]): 20.0 | injury rated visually (0=no injury, 100=dead), Corn (corn; [11]): 10.0 | injury rated visually (0=no injury, 100=dead), Corn (corn; [12]): 10.0 | injury rated visually (0=no injury, 100=dead), Corn (corn; [13]): 10.0 | injury rated visually (0=no injury, 100=dead), Wheat (wheat; [8]): 0.0 | injury rated visually (0=no injury, 100=dead), Wheat (wheat; [9]): 0.0 | injury rated visually (0=no injury, 100=dead), Wheat (wheat; [10]): 10.0 | injury rated visually (0=no injury, 100=dead), Wheat (wheat; [11]): 0.0 | injury rated visually (0=no injury, 100=dead), Wheat (wheat; [12]): 0.0 | injury rated visually (0=no injury, 100=dead), Wheat (wheat; [13]): 0.0 | injury rated visually (0=no injury, 100=dead), Tame Oat (tame oat; [8]): 0.0 | injury rated visually (0=no injury, 100=dead), Tame Oat (tame oat; [9]): 0.0 | injury rated visually (0=no injury, 100=dead), Tame Oat (tame oat; [10]): 10.0 | injury rated visually (0=no injury, 100=dead), Tame Oat (tame oat; [11]): 0.0 | injury rated visually (0=no injury, 100=dead), Tame Oat (tame oat; [12]): 0.0 | injury rated visually (0=no injury, 100=dead), Tame Oat (tame oat; [13]): 0.0

Imazamethbenz
pKas [1]: 2.9 | pKa [1]: approximately 2.9
